Assay results as given in patent US20020019536A1, “NEW URETHANES, THIO AND DITHIO ANALOGUES AND THEIR USE AS INHIBITORS OF CHOLESTEROL BIOSYNTHESIS” (priority 1997, published 2002).

Experiments:
[1] = test system: HaCat cells (human keratinocytes); assay: Inhibition of cell proliferation (BrdU ELISA); type: cell-based; settings: 10^−6 mol/l, average of three measurements, given as a percentage of the control (control 100%)
Experimental: IV. Inhibition of Cell Proliferation
HaCat cells (human keratinocytes) are seeded at a density of 10,000 cells per well in a 96 well microtitre plate. The culture medium used is Dulbecco's modified eagle medium (DMEM) with the addition of 10% calf serum. The cells are incubated for two days in an incubator, then the test substance, dissolved in dimethyl sulphoxide and diluted with culture medium, is added. After another two days incubation, 5-bromo-2′-deoxyuridine is added and the test results are determined according to the instructions (Boehringer Mannheim, Cell proliferation ELISA, BrdU(colorimetric)). The BrdU measurement was carried out at 380-490 nm in the Plate Reader made by Bio Rad.
The proliferation-inhibiting activity of compounds E, G and H was investigated. The average of three measurements was calculated and the results are given as a percentage of the control (Table 5).

[2] = Lipid reduction in the normolipaemic golden hamster; type: in vivo; settings: compared with control group
Experimental: III. Lipid Reduction in the Normolipaemic Golden Hamster This was determined using the method described in J. Lipid. Res. 38, 564-575, (1997). At the end of the experiment the total cholesterol, β-lipoprotein-cholesterol and HDL-cholesterol were determined and compared with the values of a control group which were fed without any test substance. The lipid-lowering activity of the abovementioned compounds E, G and I was tested.

[3] = test system: Sacch. carisbergensis ATCC 9080; assay: Fungistatic activity, series dilution test; type: cell-based; settings: Sabouraud broth, 2 to 4 days at 26° C.
Experimental: (§1) V. Determining the Fungistatic Activity
(§2) The fungistatic activity was determined by the series dilution test (microtitre system). Sabouraud broth was used as the nutrient medium. The inoculum amounted to about 10^4 to 10^5 CFU/ml (CFU=colony-forming units); the incubation period was 2 to 4 days at 26° C.
(§3) The lowest concentration which allows no visible growth (minimum inhibitory concentration MIC) was determined.
(§4) The abovementioned compounds B, E, G, I, K, L, N, Q and R were tested. The MIC is given in μg/ml.

[4] = test system: Trich. mentagrophytes ATCC 9129; assay: Fungistatic activity, series dilution test; type: cell-based; settings: Sabouraud broth, 2 to 4 days at 26° C.
Experimental: as §1, §2, §3, §4

Asp. niger ATCC 16404 = assay: Fungistatic activity, series dilution test; type: cell-based; settings: Sabouraud broth, 2 to 4 days at 26° C.
Experimental: as §1, §2, §3, §4

Pen. notatum CBS 19746 = assay: Fungistatic activity, series dilution test; type: cell-based; settings: Sabouraud broth, 2 to 4 days at 26° C.
Experimental: as §1, §2, §3, §4

Rhod. rubra 49 = assay: Fungistatic activity, series dilution test; type: cell-based; settings: Sabouraud broth, 2 to 4 days at 26° C.
Experimental: as §1, §2, §3, §4

[5] = test system: Cand. albicans ATCC 10231; assay: Fungistatic activity, series dilution test; type: cell-based; settings: Sabouraud broth, 2 to 4 days at 26° C.
Experimental: as §1, §2, §3, §4

[6] = test system: 14C-acetate incorporation into the steroids which can be precipitated with digitonin (cholesterol biosynthesis); assay: Inhibition of 14C-acetate incorporation into the steroids which can be precipitated with digitonin; type: cell-based; settings: for IC50: 14C-acetate incorporation
From the text: I. Measuring the Inhibition of ^14C-acetate incorporation into the steroids which can be precipitated with digitonin: The inhibitory effect was investigated using the method described in J. Lipid. Res. 37, 148-157 [1996] at test concentrations of 10^−8 and 10^−9 mol/l.

[7] = target: T1, 2,3-epoxysqualene-lanosterol-cyclase (Rattus norvegicus, UniProt P48450); assay: In-vivo activity in the rat after oral administration: 2,3-epoxysqualene level in the liver
T1 construct: Measuring the in-vivo Activity in the Rat after Oral Administration; from tissue; host or cells: living rat; 2,3-epoxysqualene measured in the liver
T1 sequence (P48450 1-733): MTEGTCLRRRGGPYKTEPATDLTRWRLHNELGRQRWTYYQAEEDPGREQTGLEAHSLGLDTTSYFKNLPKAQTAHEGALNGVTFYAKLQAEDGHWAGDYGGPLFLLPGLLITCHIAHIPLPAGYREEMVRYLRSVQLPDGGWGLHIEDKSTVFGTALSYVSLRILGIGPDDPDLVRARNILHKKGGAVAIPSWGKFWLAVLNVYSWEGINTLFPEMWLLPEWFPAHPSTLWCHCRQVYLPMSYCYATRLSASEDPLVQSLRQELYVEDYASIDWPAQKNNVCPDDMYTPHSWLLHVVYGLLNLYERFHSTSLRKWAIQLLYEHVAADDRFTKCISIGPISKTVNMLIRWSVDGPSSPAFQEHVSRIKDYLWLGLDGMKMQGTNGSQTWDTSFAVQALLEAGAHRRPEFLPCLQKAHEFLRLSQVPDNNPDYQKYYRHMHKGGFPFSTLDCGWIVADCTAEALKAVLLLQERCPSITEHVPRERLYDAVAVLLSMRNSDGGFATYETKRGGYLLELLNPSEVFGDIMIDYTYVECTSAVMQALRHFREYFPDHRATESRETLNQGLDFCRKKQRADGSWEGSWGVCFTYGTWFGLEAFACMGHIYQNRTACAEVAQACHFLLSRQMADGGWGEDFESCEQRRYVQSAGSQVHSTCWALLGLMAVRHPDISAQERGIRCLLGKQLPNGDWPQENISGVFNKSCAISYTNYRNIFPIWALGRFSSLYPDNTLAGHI
Experimental: II. Measuring the in-vivo Activity in the Rat after Oral Administration
Inhibiting the enzyme 2,3-epoxysqualene-lanosterol-cyclase causes an increase in the 2,3-epoxisqualene levels in the liver and plasma. The quantity of 2,3-epoxysqualene formed therefore serves as a direct measurement of the potency on the animal as a whole. The amounts were determined using the method described in J. Lipid. Res. 38, 564-575, [1997] at t=3 or 8 hours after administration of the substance in concentrations of c=0.01, 0.03, 0.1, 0.3 and 1.0 mg/kg. Table 3 which follows gives the results obtained for the abovementioned substances A, B, C, E, G, H, O and R by way of example.
In the control animals there were no measurable 2,3-epoxisqualene levels under these conditions.

[8] = 0.01 mg/kg oral, 3 h after administration
[9] = 0.01 mg/kg oral, 8 h after administration
[10] = 0.03 mg/kg oral, 3 h after administration
[11] = 0.03 mg/kg oral, 8 h after administration
[12] = 0.1 mg/kg oral, 3 h after administration
[13] = 0.1 mg/kg oral, 8 h after administration
[14] = 0.3 mg/kg oral, 3 h after administration
[15] = 0.3 mg/kg oral, 8 h after administration

SMILES | MIC Sacc. [3] | MIC Trich. [4] | MIC Asp. (Asp. niger ATCC 16404) | MIC Pen. (Pen. notatum CBS 19746) | MIC Rhod. (Rhod. rubra 49) | MIC Cand. [5] | IC50 [6] | percentage inhibition of 14C-acetate incorporation ([6]; test concentration 10^−8 mol/l) | percentage inhibition of 14C-acetate incorporation ([6]; test concentration 10^−9 mol/l) | 2,3-epoxysqualene concentration in the liver (rat) [7, 8] | 2,3-epoxysqualene concentration in the liver (rat) [7, 9] | 2,3-epoxysqualene concentration in the liver (rat) [7, 10] | 2,3-epoxysqualene concentration in the liver (rat) [7, 11] | 2,3-epoxysqualene concentration in the liver (rat) [7, 12] | 2,3-epoxysqualene concentration in the liver (rat) [7, 13] | 2,3-epoxysqualene concentration in the liver (rat) [7, 14] | 2,3-epoxysqualene concentration in the liver (rat) [7, 15] | further results
CN(C)Cc1ccc([C@H]2CC[C@H](N(C)C(=O)Oc3ccc(Cl)cc3)CC2)cc1.Cl [E, trans-O-(4-chlorophenyl)-N-4-[4-(dimethylaminomethyl)-phenyl]cyclohexyl-N-methylcarbamate-hydrochloride] | 128 µg/mL | 2 µg/mL | 4 µg/mL | 2 µg/mL | 16 µg/mL | 16 µg/mL | 0.3 nM | −85% | −57% | 20.3 µg/g | 32.7 µg/g | 39.0 µg/g | 44.6 µg/g | 92.5 µg/g | 191.5 µg/g | 63.4 µg/g | 180.0 µg/g | Cell proliferation (% of control) [1]: 19.6%; HDL-cholesterol ([2]; dose 0.5 mg/kg/day): −18.2%; Total cholesterol ([2]; dose 0.5 mg/kg/day): −22.5%; β-Lipoprotein-cholesterol ([2]; dose 0.5 mg/kg/day): −27.5%; HDL-cholesterol ([2]; dose 1.5 mg/kg/day): −24.0%; Total cholesterol ([2]; dose 1.5 mg/kg/day): −34.1%; β-Lipoprotein-cholesterol ([2]; dose 1.5 mg/kg/day): −48.4%; HDL-cholesterol ([2]; dose 4.9 mg/kg/day): −25.1%; Total cholesterol ([2]; dose 4.9 mg/kg/day): −34.3%; β-Lipoprotein-cholesterol ([2]; dose 4.9 mg/kg/day): −45.1%
CN(C)Cc1ccc([C@H]2CC[C@H](N(C)C(=O)Oc3ccc(F)cc3)CC2)cc1.Cl [R, trans-N-4-[4-(dimethylaminomethyl)phenyl]cyclohexyl-O-(4-fluorophenyl)-N-methylcarbamate-hydrochloride] | 512 µg/mL | 2 µg/mL | 16 µg/mL | 16 µg/mL | 16 µg/mL | 64 µg/mL | 0.5 nM | −86% | −63% | 5.1 µg/g | 25.6 µg/g | 38.2 µg/g | 67.2 µg/g | 53.8 µg/g | 152.9 µg/g | 79.7 µg/g | 191.0 µg/g | HDL-cholesterol ([2]; dose 1.73 mg/kg/day): −19.7%; Total cholesterol ([2]; dose 1.73 mg/kg/day): −16.5%; β-Lipoprotein-cholesterol ([2]; dose 1.73 mg/kg/day): −14.3%; HDL-cholesterol ([2]; dose 6.37 mg/kg/day): −20.0%; Total cholesterol ([2]; dose 6.37 mg/kg/day): −27.8%; β-Lipoprotein-cholesterol ([2]; dose 6.37 mg/kg/day): −34.3%; 2,3-epoxysqualene concentration in the liver (rat) ([7]; 1.0 mg/kg oral, 3 h after administration): 106.2 µg/g; 2,3-epoxysqualene concentration in the liver (rat) ([7]; 1.0 mg/kg oral, 8 h after administration): 340.0 µg/g
